From patent USRE46943E1, “Radioprotector compounds and methods” (PETER MACCALLUM CANCER INSTITUTE, priority 2010, dated 2018)

Experiments:
[1] = system: transformed human keratinocyte cell line (FEP 1811); assay: Clonogenic survival cell culture assay for cytotoxicity; format: cell-based; conditions: Homo sapiens, Keratinocyte, light or radiation study; un-irradiated keratinocytes, one hour drug exposure, colonies counted after eight days; read-out: C50 (concentration of radioprotector that results in 50% clonogenic survival)
Method in brief: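 Mid-log monolayers exposed to test drug for 1 h, then pronase-dispersed and plated; colonies counted after 8 days. For […], irradiation at 0.6 Gy per minute began 30 min after drug addition, with total drug exposure held at 60 min before plating for clonogenic survival.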

[2] = system: mouse jejunum crypt clonogens; assay: Radioprotection of mouse jejunum by intravenous 2PH (surviving crypt clonogens); format: in vivo, C3H/HeJ mice
Description: C3H/HeJ mice were administered 2PH by intravenous (tail vein) injection (30 mM solution in acetate-buffered saline, pH5; 150 mg/kg) 2 hours prior to whole body irradiation (up to 19 Gy) with ^137Cs γ-rays (GammaCell 40 Irradiator, Nordion International Inc., Canada) at a dose rate of 0.73 Gy/min, in groups of 5. The mice were euthanised 3 days 14 hours post-irradiation and the jejunum excised. Five 1 cm jejunum sections were taken from each mouse and bundled with micropore tape before being fixed in neutral buffered formalin. Samples are then paraffin embedded, sectioned and stained with Hematoxylin-Eosin. The densely stained colonies (>10 cells) arising from proliferation of surviving crypt clonogens were counted and scored on the basis of colonies per circumference.
The data for each of the two experimental groups was fitted to the expression: N(D)=N0(1−e^−Se^−αD) Where: • N0 is the initial number of clonogens per circumference, • N(D) the number of surviving clonogens per circumference after a radiation dose of D Gy, • S is the number of clonogens per crypt, and • α is the reciprocal of radiation dose corresponding to a lethal event.

mice = assay: Radioprotection of mouse jejunum, subcutaneous administration: local reaction at injection site; format: in vivo
Description: 2-Hydroxypropyl-β-cyclodextrin (HPCD, Sigma-Aldrich, typical MW 1540) vehicle solution was prepared by dissolving 3.6 g of HPCD in 9.3 mL of phosphate buffered saline (PBS) resulting in 30% v/w solution. […] The concentration of M2PB was measured following appropriate dilution in 45% MeOH 0.1% TFA using an extinction coefficient […] at 345 nm. The M2PB/HPCD stock was diluted to 8.75 mg/mL (22 mM) in HPCD vehicle to produce the final M2PB/HPCD formulation, which was injected subcutaneously into mice, between the shoulder blades (scruff of the neck) at a volume of 8×10^−3 ml/g body weight.
The subsequent irradiation and analysis was as described for Example 56.

[3] = subcutaneous solutions in polyethylene glycol (MW 400), similar experiments with the jejunum model

SMILES	IC50 [1] [µM]	α (reciprocal of radiation dose corresponding to a lethal event), derived by curve-fitting ([2]; 150 mg/kg intravenous 2 hours prior to whole body irradiation, control 0.529+/−0.048)	dose modification factor ([2]; 150 mg/kg intravenous, from α control and α 2PH)	local reaction or toxicity at the site of subcutaneous injection (mice; [3])	melting point	local reaction or toxicity at the site of subcutaneous injection (mice; M2PB/HPCD formulation (complex with 2-hydroxypropyl-β-cyclodextrin), 8.75 mg/mL subcutaneous)
CN1CCN(c2ccc3nc(-c4ccc5nc(-c6ccccn6)[nH]c5c4)[nH]c3c2)CC1 [Example 2, 2-(5′-(5″-(4′″-Methylpiperazin-1′″-yl)benzimidazol-2″-yl)benzimidazol-2′-yl)pyridine]	101	0.431+/−0.039 Gy−1	1.23+/−0.15	had been observed	–	–
Cc1ccc(-c2nc3ccc(-c4nc5ccc(N6CCN(C)CC6)cc5[nH]4)cc3[nH]2)nc1 [Example 6, 5-Methyl-2-(5′-(5″-(4′″-methylpiperazin-1′″-yl)benzimidazol-2″-yl)benzimidazol-2′-yl)pyridine]	58.4	–	–	–	200 to 204 °C	–
c1ccc(-c2nc3ccc(-c4nc5ccc(N6CCOCC6)cc5[nH]4)cc3[nH]2)nc1 [Example 19, 2-(5′-(5″-Morpholinobenzimidazol-2″-yl)benzimidazol-2′-yl)pyridine]	150	–	–	had been observed	–	no indication of local reaction or toxicity
OC1CCN(c2ccc3nc(-c4ccc5nc(-c6cc7ccccc7cn6)[nH]c5c4)[nH]c3c2)CC1 [Example 23, 3-(5′-(5″-(4′″-Hydroxypiperidin-1′″-yl)benzimidazol-2″-yl)benzimidazol-2′-yl)isoquinoline]	589	–	–	–	222 °C (dec.)	–
